Experimental data published in US9066861B2 (priority 2009, dated 2015).

How the values were obtained:
Type in all cases: physicochemical
[1] = Stability analysis of raw API by titration method (BP); conditions: after 3 Months
Text: (§1) In both studies the * Initial denotes the results of the samples tested at the time of receipt of the API from the supplier.

[2] = Assay (%) test of APIs in cream, stability study, HPLC method
Protocol: The stability of the product is confirmed by the stability studies performed for 3/6 months as per ICH guidelines.
APIs-stability experiments were carried out (see tables 3-20) using several products that are representative of the present invention. Tests were carried out to observe (or measure as appropriate) the physical appearance of the product, the pH value and assay of the APIs over a period of time. […] Betamethasone Valerate—0.12% (w/w) • ii. Fluticasone Propionate—0.05% (w/w) • iii. Mometasone Furoate—0.1% (w/w) • iv. Dexamethasone Acetate—0.1% (w/w) • v. Hydrocortisone Acetate—1.0% (w/w) • vi. Clobetasol Propionate—0.05% (w/w) • vii. Beclomethasone Dipropionate—0.025% (w/w) • viii. Betamethasone Dipropionate—0.05% (w/w) wherein all percentages are with respect to the final formulation.
The product used for the Stability Studies tests contained approximately 10% extra APIs (overages).

[3] = Stability analysis of raw API by stability indicating HPLC method; conditions: for Assay (%) HPLC / Percentage Drop (%) HPLC / loss in 3 Months: raw API; for Assay (%) HPLC / Percentage Drop (%) HPLC: after 3 Months
Text: as §1

CC(=O)O[C@H]1C[C@@]2(C)[C@@H](C[C@@H](O)[C@H]3[C@@]4(C)CC[C@@H](O)[C@@H](C)[C@@H]4CC[C@@]32C)/C1=C(\CCC=C(C)C)C(=O)O [Fusidic acid]
Assay (%) Titration ([1]; 45° C. (C) closed Petri dish): 99.10%
Percentage Drop (%) Titration ([1]; 45° C. (C) closed Petri dish): 1.50%
Assay (%) Titration ([1]; 45° C. (O) open Petri dish): 98.52%
Percentage Drop (%) Titration ([1]; 45° C. (O) open Petri dish): 2.08%
Assay (%) Titration ([1]; RT (C) closed Petri dish): 99.02%
Percentage Drop (%) Titration ([1]; RT (C) closed Petri dish): 1.58%
Assay (%) Titration ([1]; RT (O) open Petri dish): 99.21%
Percentage Drop (%) Titration ([1]; RT (O) open Petri dish): 1.39%
Assay (%) ([2]; in cream Batch No. HAS-01, 25° C. 60% RH, 1st Month): 108.50%
Assay (%) ([2]; in cream Batch No. HAS-01, 25° C. 60% RH, 2nd Month): 108.44%
Assay (%) ([2]; in cream Batch No. HAS-01, 25° C. 60% RH, 3rd Month): 108.36%
Assay (%) ([2]; in cream Batch No. HAS-01, 30° C. 65% RH, 1st Month): 108.51%
Assay (%) ([2]; in cream Batch No. HAS-01, 30° C. 65% RH, 2nd Month): 108.42%
Assay (%) ([2]; in cream Batch No. HAS-01, 30° C. 65% RH, 3rd Month): 108.32%
Assay (%) ([2]; in cream Batch No. HAS-01, 40° C. 75% RH, 1st Month): 108.48%
Assay (%) ([2]; in cream Batch No. HAS-01, 40° C. 75% RH, 2nd Month): 108.34%
Assay (%) ([2]; in cream Batch No. HAS-01, 40° C. 75% RH, 3rd Month): 108.20%
Assay (%) ([2]; in cream Batch No. HAS-01, Freezthaw, 1st Month): 108.31%
Assay (%) ([2]; in cream Batch No. HAS-01, Initial): 108.52%
Assay (%) ([2]; in cream Batch No. HAS-01, Temperature cycling, 1st Month): 108.40%
Assay (%) ([2]; in cream Batch No. SBV-01, 25° C. 60% RH, 1st Month): 108.54%
Assay (%) ([2]; in cream Batch No. SBV-01, 25° C. 60% RH, 2nd Month): 108.42%
Assay (%) ([2]; in cream Batch No. SBV-01, 25° C. 60% RH, 3rd Month): 108.40%
Assay (%) ([2]; in cream Batch No. SBV-01, 30° C. 65% RH, 1st Month): 108.53%
Assay (%) ([2]; in cream Batch No. SBV-01, 30° C. 65% RH, 2nd Month): 108.41%
Assay (%) ([2]; in cream Batch No. SBV-01, 30° C. 65% RH, 3rd Month): 108.36%
Assay (%) ([2]; in cream Batch No. SBV-01, 40° C. 75% RH, 1st Month): 108.46%
Assay (%) ([2]; in cream Batch No. SBV-01, 40° C. 75% RH, 2nd Month): 108.16%
Assay (%) ([2]; in cream Batch No. SBV-01, 40° C. 75% RH, 3rd Month): 108.11%
Assay (%) ([2]; in cream Batch No. SBV-01, Freezthaw, 1st Month): 108.01%
Assay (%) ([2]; in cream Batch No. SBV-01, Initial): 108.57%
Assay (%) ([2]; in cream Batch No. SBV-01, Temperature cycling, 1st Month): 107.53%
Assay (%) ([2]; in cream Batch No. SFB-01, 25° C. 60% RH, 1st Month): 108.22%
Assay (%) ([2]; in cream Batch No. SFB-01, 25° C. 60% RH, 2nd Month): 108.18%
Assay (%) ([2]; in cream Batch No. SFB-01, 25° C. 60% RH, 3rd Month): 108.15%
Assay (%) ([2]; in cream Batch No. SFB-01, 30° C. 65% RH, 1st Month): 108.25%
Assay (%) ([2]; in cream Batch No. SFB-01, 30° C. 65% RH, 2nd Month): 108.22%
Assay (%) ([2]; in cream Batch No. SFB-01, 30° C. 65% RH, 3rd Month): 108.18%
Assay (%) ([2]; in cream Batch No. SFB-01, 40° C. 75% RH, 1st Month): 108.25%
Assay (%) ([2]; in cream Batch No. SFB-01, 40° C. 75% RH, 2nd Month): 108.20%
Assay (%) ([2]; in cream Batch No. SFB-01, 40° C. 75% RH, 3rd Month): 108.12%
Assay (%) ([2]; in cream Batch No. SFB-01, Freezthaw, 1st Month): 108.11%
Assay (%) ([2]; in cream Batch No. SFB-01, Initial): 108.28%
Assay (%) ([2]; in cream Batch No. SFB-01, Temperature cycling, 1st Month): 108.23%
Assay (%) ([2]; in cream Batch No. SFC-01, 25° C. 60% RH, 1st Month): 108.64%
Assay (%) ([2]; in cream Batch No. SFC-01, 25° C. 60% RH, 2nd Month): 108.52%
Assay (%) ([2]; in cream Batch No. SFC-01, 25° C. 60% RH, 3rd Month): 108.48%
Assay (%) ([2]; in cream Batch No. SFC-01, 25° C. 60% RH, 6th Month): 108.38%
Assay (%) ([2]; in cream Batch No. SFC-01, 30° C. 65% RH, 1st Month): 108.53%
Assay (%) ([2]; in cream Batch No. SFC-01, 30° C. 65% RH, 2nd Month): 108.31%
Assay (%) ([2]; in cream Batch No. SFC-01, 30° C. 65% RH, 3rd Month): 108.26%
Assay (%) ([2]; in cream Batch No. SFC-01, 30° C. 65% RH, 6th Month): 108.22%
Assay (%) ([2]; in cream Batch No. SFC-01, 40° C. 75% RH, 1st Month): 108.56%
Assay (%) ([2]; in cream Batch No. SFC-01, 40° C. 75% RH, 2nd Month): 108.36%
Assay (%) ([2]; in cream Batch No. SFC-01, 40° C. 75% RH, 3rd Month): 108.21%
Assay (%) ([2]; in cream Batch No. SFC-01, 40° C. 75% RH, 6th Month): 108.18%
Assay (%) ([2]; in cream Batch No. SFC-01, Freezthaw, 1st Month): 108.21%
Assay (%) ([2]; in cream Batch No. SFC-01, Initial): 108.68%
Assay (%) ([2]; in cream Batch No. SFC-01, Temperature cycling, 1st Month): 108.10%
Assay (%) ([2]; in cream Batch No. SFD-01, 25° C. 60% RH, 1st Month): 108.60%
Assay (%) ([2]; in cream Batch No. SFD-01, 25° C. 60% RH, 2nd Month): 108.54%
Assay (%) ([2]; in cream Batch No. SFD-01, 25° C. 60% RH, 3rd Month): 108.46%
Assay (%) ([2]; in cream Batch No. SFD-01, 30° C. 65% RH, 1st Month): 108.63%
Assay (%) ([2]; in cream Batch No. SFD-01, 30° C. 65% RH, 2nd Month): 108.52%
Assay (%) ([2]; in cream Batch No. SFD-01, 30° C. 65% RH, 3rd Month): 108.32%
Assay (%) ([2]; in cream Batch No. SFD-01, 40° C. 75% RH, 1st Month): 108.58%
Assay (%) ([2]; in cream Batch No. SFD-01, 40° C. 75% RH, 2nd Month): 108.44%
Assay (%) ([2]; in cream Batch No. SFD-01, 40° C. 75% RH, 3rd Month): 108.30%
Assay (%) ([2]; in cream Batch No. SFD-01, Freezthaw, 1st Month): 108.41%
Assay (%) ([2]; in cream Batch No. SFD-01, Initial): 108.62%
Assay (%) ([2]; in cream Batch No. SFD-01, Temperature cycling, 1st Month): 108.52%
Assay (%) ([2]; in cream Batch No. SFM-01, 25° C. 60% RH, 1st Month): 108.24%
Assay (%) ([2]; in cream Batch No. SFM-01, 25° C. 60% RH, 2nd Month): 108.22%
Assay (%) ([2]; in cream Batch No. SFM-01, 25° C. 60% RH, 3rd Month): 108.20%
Assay (%) ([2]; in cream Batch No. SFM-01, 25° C. 60% RH, 6th Month): 107.95%
Assay (%) ([2]; in cream Batch No. SFM-01, 30° C. 65% RH, 1st Month): 108.23%
Assay (%) ([2]; in cream Batch No. SFM-01, 30° C. 65% RH, 2nd Month): 108.21%
Assay (%) ([2]; in cream Batch No. SFM-01, 30° C. 65% RH, 3rd Month): 108.16%
Assay (%) ([2]; in cream Batch No. SFM-01, 30° C. 65% RH, 6th Month): 107.92%
Assay (%) ([2]; in cream Batch No. SFM-01, 40° C. 75% RH, 1st Month): 108.26%
Assay (%) ([2]; in cream Batch No. SFM-01, 40° C. 75% RH, 2nd Month): 108.14%
Assay (%) ([2]; in cream Batch No. SFM-01, 40° C. 75% RH, 3rd Month): 108.08%
Assay (%) ([2]; in cream Batch No. SFM-01, 40° C. 75% RH, 6th Month): 107.89%
Assay (%) ([2]; in cream Batch No. SFM-01, Freezthaw, 1st Month): 108.11%
Assay (%) ([2]; in cream Batch No. SFM-01, Initial): 108.27%
Assay (%) ([2]; in cream Batch No. SFM-01, Temperature cycling, 1st Month): 107.63%
Assay (%) ([2]; in cream Batch No. SPC-01, 25° C. 60% RH, 1st Month): 108.30%
Assay (%) ([2]; in cream Batch No. SPC-01, 25° C. 60% RH, 2nd Month): 108.24%
Assay (%) ([2]; in cream Batch No. SPC-01, 25° C. 60% RH, 3rd Month): 108.15%
Assay (%) ([2]; in cream Batch No. SPC-01, 25° C. 60% RH, 6th Month): 108.08%
Assay (%) ([2]; in cream Batch No. SPC-01, 30° C. 65% RH, 1st Month): 108.31%
Assay (%) ([2]; in cream Batch No. SPC-01, 30° C. 65% RH, 2nd Month): 108.32%
Assay (%) ([2]; in cream Batch No. SPC-01, 30° C. 65% RH, 3rd Month): 108.22%
Assay (%) ([2]; in cream Batch No. SPC-01, 30° C. 65% RH, 6th Month): 108.11%
Assay (%) ([2]; in cream Batch No. SPC-01, 40° C. 75% RH, 1st Month): 108.33%
Assay (%) ([2]; in cream Batch No. SPC-01, 40° C. 75% RH, 2nd Month): 108.24%
Assay (%) ([2]; in cream Batch No. SPC-01, 40° C. 75% RH, 3rd Month): 108.10%
Assay (%) ([2]; in cream Batch No. SPC-01, 40° C. 75% RH, 6th Month): 108.01%
Assay (%) ([2]; in cream Batch No. SPC-01, Freezthaw, 1st Month): 108.22%
Assay (%) ([2]; in cream Batch No. SPC-01, Initial): 108.38%
Assay (%) ([2]; in cream Batch No. SPC-01, Temperature cycling, 1st Month): 108.28%
Initial (%) ([3]; raw API tested at the time of receipt from the supplier, method not stated): 100.6%
Assay (%) HPLC ([3]; 45° C. (C) closed Petri dish): 92.12%
Percentage Drop (%) HPLC ([3]; 45° C. (C) closed Petri dish): 8.48%
Assay (%) HPLC ([3]; 45° C. (O) open Petri dish): 89.52%
Percentage Drop (%) HPLC ([3]; 45° C. (O) open Petri dish): 11.08%
loss in 3 Months ([3]; 45° C. (open condition)): about 11%
Assay (%) HPLC ([3]; RT (C) closed Petri dish): 94.37%
Percentage Drop (%) HPLC ([3]; RT (C) closed Petri dish): 6.23%
Assay (%) HPLC ([3]; RT (O) open Petri dish): 92.93%
Percentage Drop (%) HPLC ([3]; RT (O) open Petri dish): 7.67%
loss in 3 Months ([3]; room temperature (open condition)): about 7.7%
stability as an API, Sodium Fusidate compared with Fusidic acid ([3]; raw APIs, Tables 1 and 2): deteriorates more rapidly than Sodium Fusidate
